US4824936A, “(19-Alanine) calcitonin” (Rorer Pharmaceutical Corporation, priority 1987, dated 1989)
Bridge positions count the residues as written; N and C are the ends. Peptide text beside a SMILES is read from it.

Key:
[1] = tested on: serum calcium concentration
Protocol: Biological Assay of Calcitonin Analogs in Vivo
Rats were divided into four groups of seven animals, and each group was assigned at random to a dose of standard or test solution. Low and high doses were chosen from the linear portion of the dose-response curve. For the salmon calcitonin standard, the values were 0.7 and 2.1 mcg. peptide/100 g. body weight (BW). This dose approximates 3 and 9 MU/100 g. […] Peptides were given by subcutaneous injection (0.2 ml/100 g. BW) and blood was withdrawn 1 hour later for serum calcium determination. Sera are processed and analyzed within two hours of collection.

[2] = literature values; cited from earlier work

Molecule: CC(C)C[C@H](NC(=O)[C@H](CCCCN)NC(=O)CNC(=O)[C@H](CC(C)C)NC(=O)[C@@H](NC(=O)[C@@H]1CSSC[C@H](N)C(=O)N[C@@H](CO)C(=O)N[C@@H](CC(N)=O)C(=O)N[C@@H](CC(C)C)C(=O)N[C@@H](CO)C(=O)N[C@@H]([C@@H](C)O)C(=O)N1)C(C)C)C(=O)N[C@@H](CO)C(=O)N[C@@H](CCC(N)=O)C(=O)N[C@@H](CCC(=O)O)C(=O)N[C@@H](CC(C)C)C(=O)N[C@@H](Cc1c[nH]cn1)C(=O)N[C@@H](CCCCN)C(=O)N[C@@H](C)C(=O)N[C@@H](CCC(N)=O)C(=O)N[C@H](C(=O)N[C@@H](Cc1ccc(O)cc1)C(=O)N1CCC[C@H]1C(=O)N[C@@H](CCCNC(=N)N)C(=O)N[C@H](C(=O)N[C@@H](CC(N)=O)C(=O)N[C@H](C(=O)NCC(=O)N[C@@H](CO)C(=O)NCC(=O)N[C@H](C(=O)N1CCC[C@H]1C(N)=O)[C@@H](C)O)[C@@H](C)O)[C@@H](C)O)[C@@H](C)O [[Ala^19]SCT, [19-Alanine] salmon calcitonin] (H-CSNLSTCVLGKLSQELHKAQTYPRTNTGSGTP-NH2; disulfide 1-7)
- biological potency ([1]; rat, in vivo, sc): 5400 IU/mg

Molecule: CC(C)C[C@H](NC(=O)[C@H](CCCCN)NC(=O)CNC(=O)[C@H](CC(C)C)NC(=O)[C@@H](NC(=O)[C@@H]1CSSC[C@H](N)C(=O)N[C@@H](CO)C(=O)N[C@@H](CC(N)=O)C(=O)N[C@@H](CC(C)C)C(=O)N[C@@H](CO)C(=O)N[C@@H]([C@@H](C)O)C(=O)N1)C(C)C)C(=O)N[C@@H](CO)C(=O)N[C@@H](CCC(N)=O)C(=O)N[C@@H](CCC(=O)O)C(=O)N[C@@H](CC(C)C)C(=O)N[C@@H](Cc1c[nH]cn1)C(=O)N[C@@H](CCCCN)C(=O)N[C@@H](CC(C)C)C(=O)N[C@@H](CCC(N)=O)C(=O)N[C@H](C(=O)N[C@@H](Cc1ccc(O)cc1)C(=O)N1CCC[C@H]1C(=O)N[C@@H](CCCNC(=N)N)C(=O)N[C@H](C(=O)N[C@@H](CC(N)=O)C(=O)N[C@H](C(=O)NCC(=O)N[C@@H](CO)C(=O)NCC(=O)N[C@H](C(=O)N1CCC[C@H]1C(N)=O)[C@@H](C)O)[C@@H](C)O)[C@@H](C)O)[C@@H](C)O [standard salmon calcitonin, Salmon calcitonin]
- biological potency of the standard, independently determined ([1]; standard used in the assay, independently determined): greater than 4,000 IU/mg

Molecule: (1,7-alpha-L-amino-suberic acid) eel calcitonin
- hypocalcemic potency [2]: about 3400 IU/mg

Molecule: eel calcitonin [synthetic eel calcitonin]
- hypocalcemic potency [2]: around 4300 IU/mg
